Patent US20240352409A1, “CELL SEEDING AGENT AND SUBSTRATE FOR CELL TRANSPLANTATION USE” (CELLUSION INC., priority 2021, published 2024)
“Also recorded” adds a separate entry of the source.

Columns and labels:
[1] = system: Macaca fascicularis bullous keratopathy model; assay: Transplantation of corneal endothelial substitute cell suspension into anterior chamber of bullous keratopathy model; type: in vivo
Procedure: A cell suspension of iPS cell-derived corneal endothelial substitute cells (8×10^5 cells/160 μl) obtained in Example 1 was transplanted to the anterior chamber of a Macaca fascicularis bullous keratopathy model (conducted by SHIN NIPPON BIOMEDICAL LABORATORIES, LTD.). Two types of substrates for transplantation (containing insulin, insulin-like growth factor, and the like) were prepared: one with and one without the addition of phenol red. The corneal endothelial substitute cell suspension was transplanted into the anterior chamber of the eye by the following procedure. • (1) Corneal endothelial substitute cells suspended in two types of substrates for transplantation, with and without phenol red added, were injected into the anterior chamber using a 27-gauge syringe. • (2) Macaca fascicularis was placed face down for 3 hr. • (3) After 28 days of observation, the eyeballs were collected and observed macroscopically and microscopically. Formation of a corneal endothelial substitute cell layer and corneal thickness were measured for the transplanted eye. Corneal thickness was measured using a corneal thickness measuring device (Tomey Corporation; SP-100).

[2] = system: iPS cell-derived corneal endothelial substitute cells; assay: Influence of phenol red in cell seeding agent on engraftment, recovered cell number and survival rate in differentiation induction step; type: cell-based; settings: with vs without phenol red
Procedure: When induction into corneal endothelial substitute cell was started, iPS cells recovered using TrypLE-Select (Thermo Fisher Scientific) were suspended in a phenol red-added cell seeding agent or phenol red no-addition cell seeding agent. A 100 mm culture dish (Sumitomo Bakelite Co., Ltd.) was coated with iMatrix 511 at a concentration of 3 μg/ml, and iPS cells suspended in each cell seeding agent were seeded at a density of 1.0×10^4 cells/cm^2. Culture was started in a CO2 incubator at 37° C., and thereafter, the medium was replaced with phenol red-added corneal endothelial substitute cell induction medium or phenol red no-addition corneal endothelial substitute cell induction medium at a frequency of once every 2 to 3 days thereafter. Culture was performed for 14 days under the above-mentioned conditions in each medium for inducing corneal endothelial substitute cells. After 3, 5, and 7 days of culture, the state of the cells was confirmed under a microscope (FIG. 2A). After culturing for 14 days, for the groups in which cell engraftment was observed under a microscope, the cells were collected and the number of cells was counted. The cells were collected after removing the culture supernatant, washed twice using DPBS (−) (Thermo Fisher Scientific), detached using Accutase (Innovative Cell Technologies), and collected into a centrifuge tube. The cells collected into the centrifuge tube were separated by centrifugation, and after adjusting the cell concentration using a medium and the like, the cell concentration and survival rate were measured using an automatic cell counter (ChemoMetec) (FIG. 2B).

[3] = system: iPS cells (FF-101s04 strain); assay: Engraftment of iPS cells seeded in phenolphthalein derivative-added cell seeding agents (differentiation induction, fixed or changed seeding density); type: cell-based; settings: derivative 0.22 mM, day 7; for cell engraftment at seeding number lower than specified density: seeding density lower than 1.04×10^4 cells/cm^2; for cell engraftment at specified seeding density: seeded at 1.04×10^4 cells/cm^2
Procedure: T12.5 flask (Corning Incorporated/353107) was coated with iMatrix511 (MATRIXOME, Inc./892005) at a concentration of 6 μg/mL. iPS cells (FF-101s04 strain) were suspended in AK03N+Y medium at a density of 8.0×10^3 cells/cm^2, and were seeded into the T12.5 flask. Culture was started in a CO2 incubator at 37° C., and the medium was replaced the next day with AK03N medium not containing Y-27632. After a gap of 2 days, medium exchange was performed for 2 consecutive days, and passage was performed on the 6th day of culture.
A T25 flask (Sumitomo Bakelite Co., Ltd./MS-23050) was coated with iMatrix511 (MATRIXOME, Inc./892005) at a concentration of 6 μg/mL. iPS cells were suspended in AK03N+Y medium at a density of 2.2×10^3 cells/cm^2, and were seeded into the T25 flask. Culture was started in a CO2 incubator at 37° C., and the medium was replaced the next day with AK03N medium not containing Y-27632. After a gap of 2 days, medium exchange was performed for 2 consecutive days, and passage was performed on the 6th day of culture.
DMEM/F12 non phenol red (Thermo Fisher Scientific, Inc./11039-021) was used as the basal medium, and a phenol red-free corneal endothelial substitute cell induction medium was prepared (hereinafter also to be referred to as phenol red-free medium in this Example). To the basal medium (500 mL) were added, as additives, ITS-Supplement (Ventria/777ITS091), IGF1 (OrphanPacific, Inc.; Somazone for injection/858100075, 1 mg/mL), LIF (FUJIFILM Wako Pure Chemical Corporation/125-06661), IL-6 (Miltenyi Biotec/170-076-161), IL-11 (Pepro tech/AF-200-11), TNFα (Miltenyi Biotec/170-076-178), and water-soluble HYDROCORTONE Injection (Nichi-Iko Pharmaceutical Co., Ltd./27126333) described in the following Table 1.
The phenolphthalein derivatives shown in the following Table 2, B to D, were dissolved in advance in ethanol to a concentration of 6.6×10^−6 mol/mL. 30 mL each of the phenol red-free corneal endothelial substitute cell induction medium prepared in the above-mentioned 2. was dispensed into four 50 mL tubes, and 40.5 μL of A phenolsulfonphthalein injection 0.6% (AFP) was added to one of the four tubes. Furthermore, 100 μL of B cresol red solution with adjusted concentration was added to one of the remaining three tubes. Similarly, C thymol blue solution and D bromocresol purple solution were respectively added to the remaining two tubes. A total of four different phenolphthalein derivative-containing media were prepared and used as phenolphthalein derivative-added cell seeding agents. Each seeding agent was adjusted to have a phenolphthalein derivative concentration of 0.22 mM. […]

[4] = system: iPS cell-derived corneal endothelial substitute cells; assay: Influence of ROCK inhibitor on tight junction formation (ZO-1 expression) during passage operation in differentiation induction; type: cell-based; settings: 10 μM Y-27632 during passage operation; FIG. 1
Procedure: An influence of a ROCK inhibitor during the passage operation in the differentiation induction step of iPS cell-derived corneal endothelial substitute cells was investigated. According to Example 1 and Experimental Example 2 of Patent Literature 3 (10 μM Y-27632 was used as ROCK inhibitor instead of fasudil), the expression of ZO-1 was investigated.

SMILES: O=S1(=O)OC(c2ccc(O)cc2)(c2ccc(O)cc2)c2ccccc21 [phenol red, phenolsulfonphthalein]
- engraftment and distribution of transplanted cells on posterior cornea ([1]; 8×10^5 cells/160 μl into anterior chamber, substrate with phenol red, 28 days observation, FIG. 4): engrafted on the posterior cornea and spread uniformly
- corneal thickness ([1]; substrate for transplantation with phenol red, FIG. 3): a decrease in corneal thickness was observed; also recorded: corneal thickness decreased
- corneal edema ([1]; substrate for transplantation with phenol red, judged from corneal thickness, FIG. 3): corneal edema was improved; also recorded: corneal edema-improving effect was observed
- engraftment of cells after seeding (microscope) ([2]; 3rd, 5th, 7th day of culture, seeded at 1.0×10^4 cells/cm^2, FIG. 2A): Engraftment was clearly better
- number of recovered viable cells ([2]; day 14 of culture, FIG. 2B): clearly superior
- survival rate ([2]; day 14 of culture, FIG. 2B): clearly superior
- cell engraftment at seeding number lower than specified density [3]: cell engraftment was confirmed

SMILES: Cc1cc(C2(c3ccc(O)c(C)c3)OS(=O)(=O)c3ccccc32)ccc1O [cresol red]
- cell engraftment at seeding number lower than specified density [3]: cell engraftment was confirmed

SMILES: Cc1cc(C2(c3cc(C)c(O)c(Br)c3)OS(=O)(=O)c3ccccc32)cc(Br)c1O [bromocresol purple]
- cell engraftment at specified seeding density [3]: Engraftment was also confirmed

SMILES: C[C@@H](N)[C@H]1CC[C@H](C(=O)Nc2ccncc2)CC1 [Y-27632]
- cell transformation (epithelial-to-mesenchymal transition) [4]: causes transformation that appears to be epithelial-to-mesenchymal transition
- formation of tight junction (expression of ZO-1) [4]: formation of tight junction was inhibited; also recorded: inhibits the formation of tight junction

SMILES: Cc1cc(O)c(C(C)C)cc1C1(c2cc(C(C)C)c(O)cc2C)OS(=O)(=O)c2ccccc21 [thymol blue]
- cell engraftment at specified seeding density [3]: Engraftment was also confirmed
